The values that follow are results of earlier work, collected in patent US20050250838A1, “Formulation for sustained delivery” (priority 2004, published 2005).

Where a name gives a salt, the structure may show the parent alone.

The conditions of data set [1]: at 6 weeks.

For `Fc1ccc([C@@H]2CCNC[C@H]2COc2ccc3c(c2)OCO3)cc1` [paroxetine hydrochloride hemihydrate], the solubility in water (water) was 6 to 12 mg/mL.
As for `CNCCC(Oc1ccc(C(F)(F)F)cc1)c1ccccc1` (stereo not drawn) [fluoxetine], the response result in data set [1] is listed as “about 50%”.
For `Fc1ccc([C@@H]2CCNC[C@H]2COc2ccc3c(c2)OCO3)cc1` [amorphous paroxetine hydrochloride, paroxetine hydrochloride], the solubility entry (at room temperature (U.S. Pat. No. 6,660,298)) is “up to 75 mg/ml”.
